The record followed here is publication PMC11470957, “Principles of paralog-specific targeted protein degradation engaging the C-degron E3 KLHDC2” (Nature Communications, 2024).

In general, IC50 refers to the concentration that inhibits the measured activity by half. As usually defined, the ΔTm is the shift of the melting midpoint relative to a reference. Usually Kd stands for a measure of binding affinity in units of concentration.

Assay [1] has as its system SKBR3, AU565, RD, SKES1, A673 cells. In words: Cell Titer-Glo Luminescent Cell Viability assay. Particulars: read-out: IC50, cell viability; five cell lines (SKBR3, AU565, RD, SKES1, A673), after 24 hours.
Assay [2] deals with T1, KLHDC2^SBD (Homo sapiens, UniProt Q9Y2U9).
T1 sequence (Q9Y2U9 15-361): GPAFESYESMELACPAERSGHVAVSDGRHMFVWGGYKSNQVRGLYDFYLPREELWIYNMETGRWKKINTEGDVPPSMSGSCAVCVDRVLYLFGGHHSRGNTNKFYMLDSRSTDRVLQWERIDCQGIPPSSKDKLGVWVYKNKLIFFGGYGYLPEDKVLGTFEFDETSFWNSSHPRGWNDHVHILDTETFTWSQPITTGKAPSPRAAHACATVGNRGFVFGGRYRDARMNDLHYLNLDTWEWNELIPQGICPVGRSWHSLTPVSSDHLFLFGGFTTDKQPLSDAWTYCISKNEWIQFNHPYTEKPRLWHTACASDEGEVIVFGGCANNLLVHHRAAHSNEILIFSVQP
In words: Thermal shift assay (Sypro Orange) probing stabilization of KLHDC2^SBD. The class given is binding. More on the design: KLHDC2^SBD (15-361) and its Avi-tagged counterpart were expressed in E. coli Rosetta2 cells; 6XHis-MBP (N, cleaved yes); made in house; host or cells: E. coli Rosetta2. Particulars: for Thermal shift ΔTm: KLHDC2^SBD, ligand concentration not given. Here is the method: In an attempt to identify non-peptide ligands that target KLHDC2’s substrate binding domain (SBD), we developed a thermal shift assay probing for stabilization of KLHDC2^SBD upon ligand addition. […] We utilized the thermal shift assay to screen ~ 9,000 molecules from a diverse collection of lead-like molecules (Figs. 1b, S1a, Supplementary Table 1).
Experimental compounds (200 nl each) were dispensed into a 384-well PCR plate using the Labcyte ECHO 655 T. The assay solution, comprising 0.5 μM KLHDC2, 25 mM HEPES, 200 mM NaCl, and 5% Sypro Orange at pH 7.5, was added to achieve a final volume of 20 μl. Negative control wells contained only DMSO, while positive control wells contained a di-Gly substrate peptide derived from SELK. Fluorescence measurements of Sypro Orange in each sample were taken using a Quantstudio 5 or Quantstudio 6, with temperatures ranging from 23 to 75 °C at a rate of 0.05 °C/s. Data analysis involved calculating thermal stability using the Boltzmann and first derivative minima equations in Thermo Scientific Protein Thermal Shift software v1.4. The resulting data were uploaded to CDD Vault for further analysis.
The 8892-compound lead-like one library was screened for its ability to stabilize KLHDC2 using a sypro orange-based thermal stability single-point assay.
Supplementary Ta b l e 1. Small molecule screening data
Category Parameter Description
Assay Ty p e o f assay Thermal Stability Screen
Primary measurement RFU of Sypro Orange
Key reagents Sypro Orange
Assay protocol Experimental compounds (200nl each) were dispensed into […]
a 384-well PCR plate using the Labcyte ECHO 655T. The […]
assay solution, comprising 0.5µM KLHDC2, 25mM HEPES,
200mM NaCl, and 5% Sypro Orange at pH 7.5, was added […]
to achieve a final volume of 20μl. Negative control wells […]
contained only DMSO, while positive control wells […]
contained peptide sub2. Fluorescence measurements of
Sypro Orange in each sample were taken using a
Quantstudio 5 or Quantstudio 6, with temperatures ranging […]
from 23 to 75°C at a rate of 0.05°C/second. Data analysis […]
involved calculating thermal stability using the Boltzmann […]
and first derivative minima equations in Thermo Scientific
Protein Thermal Shift software v1.4. The resulting data […]
were uploaded to CDD Vault for further analysis.
Library Library size 10041
Library composition The library was curated from compounds cherry picked […]
from St. Jude’s collection, representative of 80% of the […]
entire collection based on scaffold diversity (2D Molecular […]
fingerprinting based clustering) and structural properties: […]
lipophilicity (cLogP<3), size (MW 200-300 Da), and no […]
structural alerts (PAINS).
Source The compound collection was curated from multiple […]
vendors and stored on-site.
Screen Format The assay was completed in 26 384 well plates
Concentration(s) tested Compounds were tested at 100µM, and then a 16-point […]
serial dilution was performed on select compounds.
Plate controls DMSO as negative control and peptide sub2 as positive […]
Reagent/ compound dispensing system Multidrop Combi and Labcyte ECHO 655T […]
Detection instrument and software Quant Studio 5 and Quant Studio 6 and Thermo Scientific […]
Protein Thermal Shift software v1.4
Correction factors No correction factors were applied.

Assay [3] concerns the target T1, KLHDC2^SBD. The experiment in a line: Surface plasmon resonance binding to KLHDC2. More on the design: KLHDC2^SBD (15-361) and its Avi-tagged counterpart were expressed in E. coli Rosetta2 cells; 6XHis-MBP (N, cleaved yes); made in house; host or cells: E. coli Rosetta2. Here is the method: Surface plasmon resonance (SPR) was utilized to determine kinetic parameters and binding affinity of KLHDC2 substrates using a PioneerFE (Sartorius). Experiments were carried out in 20 mM Tris, 200 mM NaCl, 1 mM TCEP, 0.01% Brij35, and 1% DMSO at pH 7.4 as a running buffer with a 100 µL/min flow rate at 20 °C.
The 10xHis-KLHDC2 was immobilized onto a Ni-NTA-coated biosensor chip (HisCap). The chip surface was conditioned using 10 mM HCl, 50 mM NaOH, and 0.1% SDS (50 µL at 100 µL/min) twice, followed by a 100 mM Tris buffer wash (100 µL at 100 µL/min). The surface was then activated using an injection of 0.5 M EDTA (125 µL at 25 µL/min) followed by an injection of 5 mM NiCl2 (125 µL at 25 µL/min). […] Channel 2 was treated identically to channel 3 except for protein loading to be used as a reference channel. […] 100% of the loop was injected with a 300 s dissociation time. All samples were run in triplicate. Data was analyzed using Qdat software and fit to a simple 1-site model.
The SPR experiments were performed to determine the binding affinities (KD) of KLHDC2-SJ46411 and KLHDC2-SJ46418 complexes. All the experiments were performed using a Biacore 1S+ instrument. […] The running buffer consisted of 20 mM Tris pH 7.5, 200 mM NaCl, 1 mM TCEP, 0.01% Brij35, and 4% DMSO. […] In brief, before the immobilization, the sensor chip surface was conditioned by injecting a mixture of (3:1 v/v) 8 M guanidine hydrochloride and 1 M NaOH at a flow rate of 5 μL/min for 2 min for two times. Then, running buffer was injected at a 30 μl/min flow rate for 1 min 3 times. Next, the Biotin CAPture reagent was injected at a flow rate of 2 μl/min for 5 min. Then, biotinylated KLHDC2 was only injected onto the active channel (channel 2).
Sample preparation was carried out precisely the same as SJ46411. All experiments were performed using a multi-cycle analysis method with a 30 μl/min flow rate, 120 S association, and 240 s dissociation time. All data were reference subtracted and corrected for DMSO mismatch. The sensorgrams were analyzed using Biacore insight evaluation software, and KD was determined using the 1:1 steady-state affinity fitting. Finally, all the analyzed data was replotted using GraphPad Prizm 10 software.
(In general: In SPR one partner is held on a chip, and binding of the other changes the refractive index at the surface.)

The target in assay [4] is T1, KLHDC2^SBD. In words: TR-FRET assay, competition with di-Gly degron peptide binding to KLHDC2^SBD. Details: KLHDC2^SBD (15-361) and its Avi-tagged counterpart were expressed in E. coli Rosetta2 cells; 6XHis-MBP (N, cleaved yes); made in house; host or cells: E. coli Rosetta2. Here is the method: TR-FRET assays were carried out in black 384-well microtiter plates at a final volume of 20 μL per well. An assay cocktail was prepared as a mixture of 50 nM Biotin-KLHDC2 SBD, 20 nM AlexaFluor488-RIC8B peptide, 2.5 nM Tb-Streptavidin (ThermoFisher) in assay buffer (25 mM HEPES, 100 mM NaCl, 0.1% Triton X-100, 0.5 mM DTT, pH 7.5). The assay cocktail was incubated for thirty-minutes at room temperature and 20 μl distributed to assay plates. Molecules were distributed to the plates at the indicated concentration and the assay mixture was incubated for 1 h at room temperature prior to measuring the TR-FRET signal with a PHERAstar FS plate reader (BMG Labtech) equipped with modules for excitation at 337 nm and emissions at 490 and 520 nm. The integration start was set to 100 µs and the integration time to 200 µs. The number of flashes was fixed at 100. The ratio of 520/490 was used as TR-FRET signal in calculations. Assay endpoints were normalized to 100% (buffer only) and used for curve fitting in Prism.
For orientation: Time-resolved FRET reads energy transfer from a long-lived donor to a nearby acceptor.

Where [5] appears, read: inhibition of KLHDC2^SBD binding to a di-Gly degron peptide, read-out: TR-FRET IC50.

Like-named read-outs stand apart in the source and are kept apart here.

For `Cc1sc2c(c1C)C(c1ccc(Cl)cc1)=N[C@@H](CC(=O)OC(C)(C)C)c1nnc(C)n1-2` [JQ1, reference compound], the IC50 in assay [1] was roughly 0.3 µM.

Take `O=C(O)CNC(=O)Cc1csc(-c2cccc(Cl)c2)n1` [SJ10267]: on KLHDC2^SBD [2] (read-out: ΔTm at 50 µM), the shift in melting temperature (ΔTm) at 50 µM was 2.3 ± 0.07 °C. In addition, the Kd at KLHDC2^SBD [3] (read-out: SPR Kd) amounted to 19 ± 0.06 µM. Moreover, the IC50 on KLHDC2^SBD [4] (setting [5]) was 46.7 ± 13.5 µM.

As to `COc1ccc(-c2nc(CC(=O)NCC(=O)O)cs2)c(Cl)c1` [SJ10272], the ΔTm at 50 µM on KLHDC2^SBD [2] (read-out: ΔTm at 50 µM) is 3.3 ± 0.2 °C. The Kd on KLHDC2^SBD [3] (read-out: SPR Kd) was 14.52 ± 0.01 µM. In addition, on KLHDC2^SBD [4] (setting [5]), the IC50 was found to be 30.2 ± 3.4 µM.

Consider `O=C(O)CNC(=O)Cc1csc(-c2ccc(O)cc2Cl)n1` [SJ10280], for which, on KLHDC2^SBD [2] (read-out: ΔTm at 50 µM), the shift in melting temperature (ΔTm) at 50 µM was found to be 2.5 ± 0.2 °C. The Kd on KLHDC2^SBD [3] (read-out: SPR Kd) was found to be 25.47 ± 0.05 µM. Further, at KLHDC2^SBD [4] (setting [5]), the IC50 turned out to be 40.6 ± 7.6 µM.

With `COCn1cc(-c2nc(CC(=O)NCC(=O)O)cs2)ccc1=O` [SJ15396], the “ΔTm at 50 µM” value at KLHDC2^SBD [2] (50 µM compound) was 0.9 ± 0.2 °C. At KLHDC2^SBD [3] (SPR Kd), the Kd is greater than 2000 µM. On KLHDC2^SBD [4], this compound showed an IC50 of 55.3 ± 25.2 µM.

With `COCOc1ccc(-c2nc(CC(=O)NCC(=O)O)cs2)cc1F` [SJ45737], the ΔTm at 50 µM on KLHDC2^SBD [2] (read-out: ΔTm at 50 µM) worked out at 2.8 ± 0.3 °C. Moreover, the Kd on KLHDC2^SBD [3] (read-out: SPR Kd) came out at 26.6 ± 0.1 µM. For the same compound, the IC50 on KLHDC2^SBD [4] (setting [5]) is 72.8 ± 8.6 µM.

`O=C(O)CNC(=O)Cc1csc(-c2cccc3ccncc23)n1` [SJ46412]: the “Thermal shift ΔTm” value at KLHDC2^SBD [2] was 1.8 ± 0.08 °C. Also, at KLHDC2^SBD [4] (setting [5]), the IC50 was found to be 20.3 ± 0.8 µM.

As to `COc1ccc2cc(-c3nc(CC(=O)NCC(=O)O)cs3)ccc2c1` [SJ46413], at KLHDC2^SBD [2], the “Thermal shift ΔTm” value is 3.9 ± 0.07 °C. Besides, the IC50 on KLHDC2^SBD [4] (setting [5]) stood at 10.3 ± 0.2 µM.

For the compound `O=C(O)CNC(=O)Cc1csc(-c2cccc3cccnc23)n1` [SJ46414], the “Thermal shift ΔTm” value at KLHDC2^SBD [2] amounted to 2.7 ± 0.3 °C. Besides, at KLHDC2^SBD [4] (setting [5]), the IC50 stood at 7.1 ± 0.2 µM.

On to `O=C(O)CNC(=O)Cc1csc(-c2cccc3ccccc23)n1` [SJ46415], for which the “Thermal shift ΔTm” value on KLHDC2^SBD [2] was found to be 3.7 ± 0.05 °C. Further, at KLHDC2^SBD [4] (setting [5]), the IC50 is 9.8 ± 0.1 µM.

Regarding `O=C(O)CNC(=O)Cc1csc(-c2ccc3ccccc3c2F)n1` [SJ46416], the “Thermal shift ΔTm” value on KLHDC2^SBD [2] was found to be 6.0 ± 0.1 °C. Besides, on KLHDC2^SBD [4] (setting [5]), the IC50 was 1.8 ± 0.1 µM.

In the case of `COc1ccc2ccc(-c3nc(CC(=O)NCC(=O)O)cs3)cc2c1` [SJ46417], at KLHDC2^SBD [2], the “Thermal shift ΔTm” value worked out at 4.3 ± 0.1 °C. For the same compound, the IC50 at KLHDC2^SBD [4] (setting [5]) was found to be 1.7 ± 0.06 µM.

On to `O=C(O)CNC(=O)Cc1csc(-c2ccc3c(c2)NCCO3)n1` [SJ49356], for which the “Thermal shift ΔTm” value at KLHDC2^SBD [2] was 1.3 ± 0.5 °C. Moreover, the IC50 on KLHDC2^SBD [4] (setting [5]) came out at 8.2 ± 0.3 µM.
